Data as given in US7589097B2, “Triazol[4,5-d] pyramidine derivatives and their use as purinergic receptor antagonists” (Vernalis Research Limited, priority 2001, dated 2009).

Compound	melting point
Nc1nc(-c2ccco2)c2nnn(Cc3ccc(N)c(O)c3)c2n1 [Example 173, 3-(4-amino-3-hydroxybenzyl)-7-(2-furyl)-3H-[1,2,3]triazolo[4,5-d]pyrimidine-5-amine]	239.6 to 239.8 °C
Cc1ccc(-c2nc(N)nc3c2nnn3Cc2ccc(N)c(F)c2)o1 [Example 174, 3-(4-amino-3-fluorobenzyl)-7-(5-methyl-2-furyl)-3H-[1,2,3]triazolo[4,5-d]pyrimidine-5-amine]	> 200 °C (dec.)
Nc1cccc(Cn2nnc3c(-c4ccn[nH]4)nc(N)nc32)c1 [Example 175, 3-(3-aminobenzyl)-7-(1H-pyrazol-3-yl)-3H-[1,2,3]triazolo[4,5-d]pyrimidine-5-amine]	279.3 to 281.3 °C
CC(=O)NCc1cccc(Cn2nnc3c(-c4ccco4)nc(N)nc32)n1 [Example 177, 3-(6-Acetamidomethyl-2-pyridylmethyl)-7-(2-furyl)-3H-[1,2,3]triazolo[4,5-d]pyrimidine-5-amine]	245.9 to 247 °C
CC(=O)NCc1ccccc1Cn1nnc2c(-c3ccco3)nc(N)nc21 [Example 178, N-(2-(5-amino-7-(2-furyl)-3H-[1,2,3]triazolo[4,5-d]pyrimidin-3-ylmethyl)benzyl)acetamide]	216.7 to 218.4 °C
Nc1nc(-c2ccco2)c2nnn(Cc3ccsc3)c2n1 [Example 179, 7-(2-furyl)-3-(3-thienylmethyl)-3H-[1,2,3]triazolo[4,5-d]pyrimidine-5-amine]	215.8 to 216.9 °C
Cc1ccc(-c2nc(N)nc3c2nnn3Cc2cccc(N)c2C)o1 [Example 180, 3-(3-amino-2-methylbenzyl)-7-(5-methyl-2-furyl)-3H-[1,2,3]triazolo[4,5-d]pyrimidine-5-amine]	278.4 to 279.9 °C
C=CCOCc1cccc(Cn2nnc3c(-c4ccco4)nc(N(CC=C)CC=C)nc32)n1 [Example 182, 3-(6-Allyloxymethyl-2-pyridylmethyl)-N,N-diallyl-7-(2-furyl)-3H-[1,2,3]triazolo[4,5-d]pyrimidine-5-amine]	92.3 to 92.7 °C
COCc1cccc(Cn2nnc3c(-c4ccc(C)o4)nc(N)nc32)n1 [Example 183, 3-(6-methoxymethyl-2-pyridylmethyl)-7-(5-methyl-2-furyl)-3H-[1,2,3]triazolo[4,5-d]pyrimidine-5-amine]	152 to 153.5 °C
Cc1ccc(-c2nc(N)nc3c2nnn3Cc2ccc(N)cc2)o1 [Example 184, 3-(4-aminobenzyl)-7-(5-methyl-2-furyl)-3H-[1,2,3]triazolo[4,5-d]pyrimidine-5-amine]	219.7 to 220.4 °C
C=CCOCc1cccc(Cn2nnc3c(-c4ccco4)nc(N)nc32)n1 [Example 185, 3-(6-allyloxymethyl-2-pyridylmethyl)-7-(2-furyl)-3H-[1,2,3]triazolo[4,5-d]pyrimidine-5-amine]	155.6 to 157.1 °C
C=CCOCc1cccc(Cn2nnc3c(-c4ccc(C)o4)nc(N)nc32)n1 [Example 186, 3-(6-allyloxymethyl-2-pyridylmethyl)-7-(5-methyl-2-furyl)-3H-[1,2,3]triazolo[4,5-d]pyrimidine-5-amine]	149 to 149.3 °C
CC(C)c1cc(Cn2nnc3c(-c4ccco4)nc(N)nc32)ccc1[N+](=O)[O-] [Example 187, 7-(2-furyl)-3-(3-isopropyl-4-nitrobenzyl)-3H-[1,2,3]triazolo[4,5-d]pyrimidine-5-amine]	191.7 to 191.9 °C
Cc1cccc(C(=O)C(C)n2nnc3c(-c4ccco4)nc(N)nc32)n1 (centres unmarked) [Example 190, 2-(5-amino-7-(2-furyl)-3H-[1,2,3]triazolo[4,5-d]pyrimidin-3-yl)-1-(6-methyl-2-pyridyl)propanone]	290.2 to 290.3 °C
Nc1cccc(Cn2nnc3c(-c4ccc[nH]4)nc(N)nc32)c1 [Example 191, 3-(3-aminobenzyl)-7-(1H-pyrrol-2-yl)-3H-[1,2,3]triazolo[4,5-d]pyrimidine-5-amine]	186.1 to 189.1 °C
CC(=O)Nc1ccc(Cn2nnc3c(-c4ccco4)nc(N)nc32)cc1 [Example 193, N-(4-(5-amino-7-(2-furyl)-3H-[1,2,3]triazolo[4,5-d]pyrimidin-3-ylmethyl)phenyl)acetamide]	253.6 to 254 °C
Nc1nc(-c2ccco2)c2nnn(CCc3cccs3)c2n1 [Example 196, 7-(2-furyl)-3-(2-(2-thienylethyl))-3H-[1,2,3]triazolo[4,5-d]pyrimidine-5-amine]	178.4 to 179 °C
CC(C)c1cccc(Cn2nnc3c(-c4ccco4)nc(N)nc32)n1 [Example 197, 7-(2-furyl)-3-(6-isopropyl-2-pyridylmethyl)-3H-[1,2,3]triazolo[4,5-d]pyrimidine-5-amine]	188.3 to 188.5 °C
CC(C)c1cc(Cn2nnc3c(-c4ccco4)nc(N)nc32)nc(C(C)C)c1 [Example 199, 3-(4,6-diisopropyl-2-pyridylmethyl)-7-(2-furyl)-3H-[1,2,3]triazolo[4,5-d]pyrimidine-5-amine]	226.5 to 227.9 °C

Compound	melting point
Nc1nc(-c2ccco2)c2nnn(Cc3ccc4[nH]ncc4c3)c2n1 [Example 200, 7-(2-furyl)-3-(5-indazolylmethyl)-3H-[1,2,3]triazolo[4,5-d]pyrimidine-5-amine]	> 300 °C (dec.)
CC(C)(C)OC(=O)n1cc(Cn2nnc3c(-c4ccco4)nc(N)nc32)c2ccccc21 [Example 204, tert-butyl 3-(5-amino-7-(2-furyl)-3H-[1,2,3]triazolo[4,5-d]pyrimidine-3-ylmethyl)indole-1-carboxylate]	143.6 to 144.5 °C
Nc1nc(-c2ccco2)c2nnn(Cc3cc4ccccc4[nH]3)c2n1 [Example 207, 3-(2-indolylmethyl)-7-(2-furyl)-3H-[1,2,3]triazolo[4,5-d]pyrimidine-5-amine]	289.1 to 289.3 °C
Nc1nc(-c2ccco2)c2nnn(CC(=O)c3ccccc3)c2n1 [Example 211, 2-(5-Amino-7-(2-furyl)-3H-[1,2,3]triazolo[4,5-d]pyrimidin-3-yl)-1-phenylethanone]	257.1 to 257.3 °C
CCCc1cccc(Cn2nnc3c(-c4ccco4)nc(N)nc32)n1 [Example 216, 7-(2-furyl)-3-(6-n-propyl-2-pyridylmethyl)-3H-[1,2,3]triazolo[4,5-d]pyrimidine-5-amine]	178.3 to 178.5 °C
CC(C)COCc1cccc(Cn2nnc3c(-c4ccco4)nc(N)nc32)n1 [Example 217, 7-(2-furyl)-3-(6-isobutyloxymethyl-2-pyridylmethyl)-3H-[1,2,3]triazolo[4,5-d]pyrimidine-5-amine]	146.7 to 149.3 °C
Nc1nc(-c2ccco2)c2nnn(Cc3cccc(CBr)n3)c2n1 [Example 218, 3-(6-bromomethyl-2-pyridylmethyl)-7-(2-furyl)-3H-[1,2,3]triazolo[4,5-d]pyrimidine-5-amine]	196 to 196.1 °C
N#CCc1cccc(Cn2nnc3c(-c4ccco4)nc(N)nc32)n1 [Example 220, 3-(6-Cyanomethyl-2-pyridylmethyl)-7-(2-furyl)-3H-[1,2,3]triazolo[4,5-d]pyrimidine-5-amine]	223.3 to 223.4 °C
CC(C)c1ccc(Cn2nnc3c(-c4ccco4)nc(N)nc32)cn1 [Example 228, 7-(2-furyl)-3-(6-isopropyl-3-pyridylmethyl)-3H-[1,2,3]triazolo[4,5-d]pyrimidine-5-amine]	164.3 to 169.3 °C
COc1ccc(C(=O)Cn2nnc3c(-c4ccco4)nc(N)nc32)cc1 [Example 229, 2-(5-amino-7-(2-furyl)-3H-[1,2,3]triazolo[4,5-d]pyrimidin-3-yl)-1-(4-methoxyphenyl)ethanone]	258.2 to 258.4 °C
CSCc1cccc(Cn2nnc3c(-c4ccco4)nc(N)nc32)n1 [Example 234, 7-(2-furyl)-3-(6-methylthiomethyl-2-pyridylmethyl)-3H-[1,2,3]triazolo[4,5-d]pyrimidine-5-amine]	168.3 to 168.5 °C
Nc1nc(-c2ccco2)c2nnn(CC(=O)c3ccccc3[N+](=O)[O-])c2n1 [Example 235, 2-(5-amino-7-(2-furyl)-3H-[1,2,3]triazolo[4,5-d]pyrimidin-3-yl)-1-(2-nitrophenyl)ethanone]	231.6 to 231.7 °C
CS(=O)(=O)N(Cc1cccc(Cn2nnc3c(-c4ccco4)nc(N)nc32)n1)Cc1cccc(Cn2nnc3c(-c4ccco4)nc(N)nc32)n1 [Example 237, N,N-bis(6-(5-amino-7-(2-furyl)-3H-[1,2,3]triazolo[4,5-d]pyrimidine-3-ylmethyl)-2-pyridylmethyl)methanesulphonamide]	259.3 to 259.4 °C
CS(=O)(=O)Cc1cccc(Cn2nnc3c(-c4ccco4)nc(N)nc32)n1 [Example 238, 7-(2-furyl)-3-(6-methylsulphonylmethyl-2-pyridylmethyl)-3H-[1,2,3]triazolo[4,5-d]pyrimidine-5-amine]	238.2 to 238.6 °C
CN(Cc1cccc(Cn2nnc3c(-c4ccco4)nc(N)nc32)n1)S(C)(=O)=O [Example 239, N-(6-(5-amino-7-(2-furyl)-3H-[1,2,3]triazolo[4,5-d]pyrimidin-3-ylmethyl)-2-pyridylmethyl)-N-methyl methanesulphonamide]	205.8 to 206 °C
Cc1nc(-c2nc(N)nc3c2nnn3Cc2cccc(N)c2)sc1C [Example 240, 3-(3-aminobenzyl)-7-(4,5-dimethyl-2-thiazolyl)-3H-[1,2,3]triazolo[4,5-d]pyrimidine-5-amine]	254.3 to 254.5 °C
Cc1cc(Cn2nnc3c(-c4ccco4)nc(N)nc32)c2[nH]ccc2c1 [Example 243, 7-(2-furyl)-3-(5-methyl-7-indolylmethyl)-3H-[1,2,3]triazolo[4,5-d]pyrimidine-5-amine]	> 300 °C (dec.)
CC(C)OCc1cccc(Cn2nnc3c(-c4ccco4)nc(N)nc32)n1 [Example 247, 7-(2-furyl)-3-(6-isopropoxymethyl-2-pyridylmethyl)-3H-[1,2,3]triazolo[4,5-d]pyrimidine-5-amine]	134.5 to 134.6 °C
CCOc1cccc(Cn2nnc3c(-c4ccco4)nc(N)nc32)n1 [Example 253, 3-(6-ethoxy-2-pyridylmethyl)-7-(2-furyl)-3H-[1,2,3]triazolo[4,5-d]pyrimidine-5-amine]	181.8 to 182.1 °C
